Measurements as given in patent publication EP0037318A1, “Composition, particularly useful in the treatment and prevention of dandruff and containing metallic derivatives of thiobenzoic acid” (PIERRE FABRE S.A., priority 1980, dated 1981).
Read-outs that look alike come from different tables or passages of the source.

Experiments:
[1] = Anti-oxidant power: daily peroxide index (Ip) of linoleic acid containing the suspended agent; conditions: for INDICES DE PEROXYDES: agent at 1 % suspended in linoleic acid, stored at 60°C
Protocol: La mesure du pouvoir anti-oxydant est effectuée selon la méthode décrite par CARNAT et POURRAT (Ann. Pharm. Fr. 1979, 37, n° 3-4, p. 119-124) en remplaçant l'huile de lin par de l'acide linoléique.
L'oxydation de l'acide linoléique est suivie chaque jour par une mesure de l'indice de peroxydes Ip.
Dans un flacon contenant l'acide linoléique on ajoute 15 ml de CHC13, 20 ml d'acide acétique RP puis 1 ml de solution aqueuse saturée de KI. On agite 1 mn et on laisse reposer le flacon 5 mn à l'obscurité. Après avoir ajouté 100 ml d'eau on dose l'iode libéré par du thiosulfate de sodium 0,01 N. [formula] v = volume de Na2S2O3 versé dans le dosage v = volume de Na2S2O3 versé dans l'essai à blanc Ip est exprimé en mmoles d'oxygène/kg d'acide gras.
Remarque : v doit être voisin de O car un Ip élevé révèle une oxydation du KI par l'oxygène de l'air ou dissous dans les réactifs. Pour éviter cela, les réactifs et le solvant devront être débarrassés de l'oxygène dissous par barbotage de gaz inerte, ceci afin d'obtenir des résultats comparables.
Les différents agents anti-oxydants étudiés sont mis en suspension dans l'acide linoléique et les mélanges ainsi obtenus sont stockés à l'étuve (60°C).
Tous les jours un Ip est effectué sur les mélanges suivants : • 1 - acide thiosalicylique à 1 % • 2 - pyridine thione Zn à 1 % • 3 - thiosalicylate de Zn à 1 %.

[2] = Delay of auto-oxidation (Waginaire conditions): daily Ip in interesterified oil Labrafil M 1944 CS; conditions: rank order by delay of the auto-oxidation maximum; dose 1/10 000 in Labrafil M 1944 CS, Ip daily for 90 days at 60°C
Excerpt: (Bulletin technique SFPA n° 60) l'évolution des peroxydes se fait en trois phases : • 1) évolution lente de l'Ip (non observée avec l'acide linoléique) • 2) évolution rapide de l'Ip (deux premiers jours) • 3) stabilisation et décroissance de l'Ip.
Cette dernière période apparaît après plusieurs semaines. L'auteur attribue ce phénomène à la formation de groupements carbonyles (aldéhydes et cétones).
On obtient un profil de courbe Ip = f(t) comportant un maximum d'auto-oxydation net.
L'anti-oxydant est d'autant plus efficace que le maximum d'auto-oxydation est-retardé.

[3] = Partition coefficients at 20°C; assay type: physicochemical
Protocol: 2°) Détermination des coefficients de partage à 20°C

Zinc content = assay type: physicochemical
[4] = Maximum solubility in water at 20°C, by spectroscopy
[5] = water

Compound	INDICES DE PEROXYDES ([1]; 0 (start))	INDICES DE PEROXYDES ([1]; 1 jour)	INDICES DE PEROXYDES ([1]; 2 jours)	INDICES DE PEROXYDES ([1]; 3 jours)	INDICES DE PEROXYDES ([1]; 4 jours)	Pouvoir anti-oxydant [2]	Valeurs de P ([3]; CHCl3 - eau)	Valeurs de P ([3]; Octanol-eau)	% Zinc (Zinc content)	Solubilité maximum dans l'eau [4] [mg % ml]	activité anti-oxydante ([1]; in words, compared with pyrithione zinc)	Solubilité maximum dans l'eau [5]
O=C(O)c1ccccc1S [acide thiosalicylique]	0,8 millimoles D2 pour 1000 g d'acide linoléique	117,2 millimoles D2 pour 1000 g d'acide linoléique	191,9 millimoles D2 pour 1000 g d'acide linoléique	202,7 millimoles D2 pour 1000 g d'acide linoléique	204,2 millimoles D2 pour 1000 g d'acide linoléique	thiosalicylate de Zinc > pyrithione zinc> acide thiosalicylique	–	–	–	–	–	–
[O-][n+]1ccccc1[S-].[O-][n+]1ccccc1[S-].[Zn+2] [pyrithione zinc]	0,7 millimoles D2 pour 1000 g d'acide linoléique	98 millimoles D2 pour 1000 g d'acide linoléique	174,1 millimoles D2 pour 1000 g d'acide linoléique	177,6 millimoles D2 pour 1000 g d'acide linoléique	183,7 millimoles D2 pour 1000 g d'acide linoléique	thiosalicylate de Zinc > pyrithione zinc> acide thiosalicylique	0,30	0,64	20,5%	2	–	–
chloro-5-thiosalicylate de zinc [Exemple 9]	–	–	–	–	–	–	–	–	25,7%	–	–	–
méthoxy-4-thiosalicylate de zinc [Exemple 8]	–	–	–	–	–	–	–	–	26,3%	–	–	–
ortho thiocrésotinate de zinc [Exemple 7]	–	–	–	–	–	–	–	–	28,1%	–	–	–
thiosalicylate de zinc [Exemple 1]	0,6 millimoles D2 pour 1000 g d'acide linoléique	45,5 millimoles D2 pour 1000 g d'acide linoléique	84,4 millimoles D2 pour 1000 g d'acide linoléique	99,5 millimoles D2 pour 1000 g d'acide linoléique	103,9 millimoles D2 pour 1000 g d'acide linoléique	thiosalicylate de Zinc > pyrithione zinc> acide thiosalicylique	0,05	0,21	30%	–	excellente	1,80 mg % ml
